The values below come from US10800792B2, “Inhibitors of Bruton's tyrosine kinase and method of their use” (JANSSEN PHARMACEUTICA NV, priority 2015, dated 2020).

This test has as its target unphosphorylated-BTK kinase domain (UP-BTK), GST-tagged human BTK (389-659aa) (Homo sapiens (Human), UniProt Q06187). The test can be described thus: BTK kinase Lanthascreen binding assay. The conditions noted are these: pIC50 = negative log of the IC50 in molar; 60 minutes incubation, 50 nM Tracer 236. The method in brief:
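A fluorescent tracer is bound to unphosphorylated BTK; test compound is added to compete it off; the Lanthascreen signal is read and IC50 is fitted, then reported as its negative log in molar.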
(In general: Time-resolved FRET reads energy transfer from a long-lived donor to a nearby acceptor.)

Chain of unphosphorylated-BTK kinase domain (UP-BTK), GST-tagged human BTK (389-659aa) (Q06187 389-659): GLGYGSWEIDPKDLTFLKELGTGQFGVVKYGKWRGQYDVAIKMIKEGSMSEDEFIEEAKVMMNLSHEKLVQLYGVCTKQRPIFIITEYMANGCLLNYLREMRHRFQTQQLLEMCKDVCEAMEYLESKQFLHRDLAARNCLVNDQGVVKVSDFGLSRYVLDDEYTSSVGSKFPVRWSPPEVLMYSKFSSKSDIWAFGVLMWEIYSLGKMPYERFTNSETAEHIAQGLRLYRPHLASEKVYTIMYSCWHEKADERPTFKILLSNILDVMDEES

As for `C=CC(=O)N1CC[C@@H](NC(=O)c2sc3nccc4c3c2NC(=O)N4c2c(C)cc(Oc3ccccc3)cc2F)C1` [Example 45, (R)—N-(1-Acryloylpyrrolidin-3-yl)-5-(2-fluoro-6-methyl-4-phenoxyphenyl)-4-oxo-4,5-dihydro-3H-1-thia-3,5,8-triazaacenaphthylene-2-carboxamide], the “BTK_I_binding pIC50” value came out at 7.1.

Take `N#C/C(=C\C1CC1)C(=O)N1CCC[C@@H](NC(=O)c2sc3nccc4c3c2NC(=O)N4c2ccc(Oc3ccccc3)cc2)C1` [Example 47, (R,E)-N-(1-(2-Cyano-3-cyclopropylacryloyl)piperidin-3-yl)-4-oxo-5-(4-phenoxyphenyl)-4,5-dihydro-3H-1-thia-3,5,8-triazaacenaphthylene-2-carboxamide]: the “BTK_I_binding pIC50” value came to 8.0.

In the case of `C=C(F)C(=O)N1CCC[C@@H](NC(=O)c2sc3nccc4c3c2NC(=O)N4c2ccc(Oc3ccccc3)cc2C)C1` [Example 48, (R)—N-(1-(2-Fluoroacryloyl)piperidin-3-yl)-5-(2-methyl-4-phenoxyphenyl)-4-oxo-4,5-dihydro-3H-1-thia-3,5,8-triazaacenaphthylene-2-carboxamide], the “BTK_I_binding pIC50” value is reported as 6.9.

For the compound `C=CC(=O)N1CCC[C@@H](NC(=O)c2sc3nccc4c3c2NC(=O)N4c2ccc(OC3CC3)cc2C)C1` [Example 51, (R)—N-(1-Acryloylpiperidin-3-yl)-5-(4-cyclopropoxy-2-methylphenyl)-4-oxo-4,5-dihydro-3H-1-thia-3,5,8-triazaacenaphthylene-2-carboxamide], the “BTK_I_binding pIC50” value is 7.5.

For `Cc1cc(Oc2c(F)cccc2F)ccc1N1C(=O)Nc2c(C(=O)N[C@@H]3CCCN(C)C3)sc3nccc1c23` [Example 52, (R)-5-(4-(2,6-Difluorophenoxy)-2-methylphenyl)-N-(1-methylpiperidin-3-yl)-4-oxo-4,5-dihydro-3H-1-thia-3,5,8-triazaacenaphthylene-2-carboxamide], the “BTK_I_binding pIC50” value was 7.0.

`C=CC(=O)N1C[C@H](NC(=O)c2sc3nccc4c3c2NC(=O)N4c2ccc(Oc3ccccc3)cc2C)[C@@H](OC)C1` [Example 54, N-((3S,4S)-1-Acryloyl-4-methoxypyrrolidin-3-yl)-5-(2-methyl-4-phenoxyphenyl)-4-oxo-4,5-dihydro-3H-1-thia-3,5,8-triazaacenaphthylene-2-carboxamide]: the “BTK_I_binding pIC50” value is recorded as 7.3.

Turning to `C=CC(=O)N1C[C@@H](O)[C@@H](NC(=O)c2sc3nccc4c3c2NC(=O)N4c2ccc(Oc3ccccc3)cc2C)C1` [Example 58, N-((3S,4R)-1-Acryloyl-4-hydroxypyrrolidin-3-yl)-5-(2-methyl-4-phenoxyphenyl)-4-oxo-4,5-dihydro-3H-1-thia-3,5,8-triazaacenaphthylene-2-carboxamide], the “BTK_I_binding pIC50” value is reported as 7.6.

Take `Cc1c(N2C(=O)Nc3c(C(=O)N[C@@H]4CCCN(C)C4)sc4nccc2c34)ccc(Oc2ccccc2)c1F` [Example 59, (R)-5-(3-Fluoro-2-methyl-4-phenoxyphenyl)-N-(1-methylpiperidin-3-yl)-4-oxo-4,5-dihydro-3H-1-thia-3,5,8-triazaacenaphthylene-2-carboxamide]: the “BTK_I_binding pIC50” value was 7.3.

For `CCCN1CCC[C@@H](NC(=O)c2sc3nccc4c3c2NC(=O)N4c2ccc(Oc3ccccc3)cc2C)C1` [Example 60, (R)-5-(2-Methyl-4-phenoxyphenyl)-4-oxo-N-(1-propylpiperidin-3-yl)-4,5-dihydro-3H-1-thia-3,5,8-triazaacenaphthylene-2-carboxamide], the “BTK_I_binding pIC50” value is reported as 6.8.

Regarding `Cc1c(N2C(=O)Nc3c(C(=O)N[C@H]4CCCOC4)sc4nccc2c34)ccc(Oc2ccccc2)c1F` [Example 61, (S)-5-(3-Fluoro-2-methyl-4-phenoxyphenyl)-4-oxo-N-(tetrahydro-2H-pyran-3-yl)-4,5-dihydro-3H-1-thia-3,5,8-triazaacenaphthylene-2-carboxamide], the “BTK_I_binding pIC50” value came out at 7.3.

Turning to `C=CC(=O)N1CCC[C@@H](NC(=O)c2sc3nccc4c3c2NC(=O)N4c2ccc(CC)cc2C)C1` [Example 62, (R)—N-(1-Acryloylpiperidin-3-yl)-5-(4-ethyl-2-methylphenyl)-4-oxo-4,5-dihydro-3H-1-thia-3,5,8-triazaacenaphthylene-2-carboxamide], the “BTK_I_binding pIC50” value worked out at 7.1.

For the compound `C=CC(=O)N1CCC[C@@H](NC(=O)c2sc3nccc4c3c2NC(=O)N4c2ccc(Oc3c(F)cccc3F)cc2C)C1` [Example 64, (R)—N-(1-Acryloylpiperidin-3-yl)-5-(4-(2,6-difluorophenoxy)-2-methylphenyl)-4-oxo-4,5-dihydro-3H-1-thia-3,5,8-triazaacenaphthylene-2-carboxamide], the “BTK_I_binding pIC50” value is given as 7.6.

Turning to `C=CC(=O)N1CCC[C@@H](NC(=O)c2sc3nccc4c3c2NC(=O)N4c2ccc(OC3CCOCC3)cc2C)C1` [Example 65, (R)—N-(1-Acryloylpiperidin-3-yl)-5-(2-methyl-4-((tetrahydro-2H-pyran-4-yl)oxy)phenyl)-4-oxo-4,5-dihydro-3H-1-thia-3,5,8-triazaacenaphthylene-2-carboxamide], the “BTK_I_binding pIC50” value came to 6.6.

As to `C=CC(=O)N1CCC[C@@H](NC(=O)c2sc3nccc4c3c2NC(=O)N4c2ccc(OCC)cc2C)C1` [Example 66, (R)—N-(1-Acryloylpiperidin-3-yl)-5-(4-ethoxy-2-methylphenyl)-4-oxo-4,5-dihydro-3H-1-thia-3,5,8-triazaacenaphthylene-2-carboxamide], the “BTK_I_binding pIC50” value amounted to 7.4.

Take `Cc1cc(Oc2ccccc2)ccc1N1C(=O)Nc2c(C(=O)N[C@H]3CCCOC3)sc3nccc1c23` [Example 67, (S)-5-(2-Methyl-4-phenoxyphenyl)-4-oxo-N-(tetrahydro-2H-pyran-3-yl)-4,5-dihydro-3H-1-thia-3,5,8-triazaacenaphthylene-2-carboxamide]: the “BTK_I_binding pIC50” value worked out at 7.5.

As to `C=CC(=O)N1CCC[C@@H](NC(=O)c2sc3nccc4c3c2NC(=O)N4c2c(F)cc(Oc3ccccc3)cc2F)C1` [Example 69, (R)—N-(1-Acryloylpiperidin-3-yl)-5-(2,6-difluoro-4-phenoxyphenyl)-4-oxo-4,5-dihydro-3H-1-thia-3,5,8-triazaacenaphthylene-2-carboxamide], the “BTK_I_binding pIC50” value is 7.7.

Consider `Cc1cc(Oc2cccc3ccoc23)ccc1N1C(=O)Nc2c(C(=O)N[C@@H]3CCCN(C)C3)sc3nccc1c23` [Example 70, (R)-5-(4-(Benzofuran-7-yloxy)-2-methylphenyl)-N-(1-methylpiperidin-3-yl)-4-oxo-4,5-dihydro-3H-1-thia-3,5,8-triazaacenaphthylene-2-carboxamide], for which the “BTK_I_binding pIC50” value came out at 7.1.

For `Cc1c(N2C(=O)Nc3c(C(=O)N[C@@H]4CCCOC4)sc4nccc2c34)ccc(Oc2ccccc2)c1F` [Example 71, (R)-5-(3-Fluoro-2-methyl-4-phenoxyphenyl)-4-oxo-N-(tetrahydro-2H-pyran-3-yl)-4,5-dihydro-3H-1-thia-3,5,8-triazaacenaphthylene-2-carboxamide], the “BTK_I_binding pIC50” value was determined as 7.5.

On to `COCCC(=O)N1CC[C@@H](NC(=O)c2sc3nccc4c3c2NC(=O)N4c2ccc(Oc3ccccc3)cc2C)C1` [Example 72, (R)—N-(1-(3-Methoxypropanoyl)pyrrolidin-3-yl)-5-(2-methyl-4-phenoxyphenyl)-4-oxo-4,5-dihydro-3H-1-thia-3,5,8-triazaacenaphthylene-2-carboxamide], for which the “BTK_I_binding pIC50” value came to 7.4.

Regarding `COc1ccccc1Oc1ccc(N2C(=O)Nc3c(C(=O)N[C@@H]4CCCN(C)C4)sc4nccc2c34)c(C)c1` [Example 73, (R)-5-(4-(2-Methoxyphenoxy)-2-methylphenyl)-N-(1-methylpiperidin-3-yl)-4-oxo-4,5-dihydro-3H-1-thia-3,5,8-triazaacenaphthylene-2-carboxamide], the “BTK_I_binding pIC50” value was found to be 6.8.

In the case of `CCN1CCC[C@@H](NC(=O)c2sc3nccc4c3c2NC(=O)N4c2ccc(Oc3ccccc3)cc2C)C1` [Example 74, (R)—N-(1-Ethylpiperidin-3-yl)-5-(2-methyl-4-phenoxyphenyl)-4-oxo-4,5-dihydro-3H-1-thia-3,5,8-triazaacenaphthylene-2-carboxamide], the “BTK_I_binding pIC50” value is given as 6.9.

For `Cc1cc(Oc2ccccc2)ccc1N1C(=O)Nc2c(C(=O)N[C@@H]3CCCN(C(=O)CCO)C3)sc3nccc1c23` [Example 75, (R)—N-(1-(3-Hydroxypropanoyl)piperidin-3-yl)-5-(2-methyl-4-phenoxyphenyl)-4-oxo-4,5-dihydro-3H-1-thia-3,5,8-triazaacenaphthylene-2-carboxamide], the “BTK_I_binding pIC50” value worked out at 7.2.

As to `CCc1ccccc1Oc1ccc(N2C(=O)Nc3c(C(=O)N[C@@H]4CCCN(C(=O)/C(C#N)=C/C5CC5)C4)sc4nccc2c34)c(C)c1` [Example 76, (R,E)-N-(1-(2-Cyano-3-cyclopropylacryloyl)piperidin-3-yl)-5-(4-(2-ethylphenoxy)-2-methylphenyl)-4-oxo-4,5-dihydro-3H-1-thia-3,5,8-triazaacenaphthylene-2-carboxamide], the “BTK_I_binding pIC50” value is 6.8.

In the case of `C=CC(=O)N1CC[C@@H](NC(=O)c2sc3nccc4c3c2NC(=O)N4c2ccc(Oc3ccccc3)c(C)c2C)C1` [Example 77, (R)—N-(1-Acryloylpyrrolidin-3-yl)-5-(2,3-dimethyl-4-phenoxyphenyl)-4-oxo-4,5-dihydro-3H-1-thia-3,5,8-triazaacenaphthylene-2-carboxamide], the “BTK_I_binding pIC50” value was 6.9.

With `Cc1cc(Oc2ccccc2)ccc1N1C(=O)Nc2c(C(=O)N[C@@H]3CCCN(C(=O)CN(C)C)C3)sc3nccc1c23` [Example 78, (R)—N-(1-(2-(Dimethylamino)acetyl)piperidin-3-yl)-5-(2-methyl-4-phenoxyphenyl)-4-oxo-4,5-dihydro-3H-1-thia-3,5,8-triazaacenaphthylene-2-carboxamide], the “BTK_I_binding pIC50” value stood at 7.3.
